# Data: US20180256673A1, “METHODS FOR TREATING FUNGAL INFECTIONS” (priority 2015, published 2018)
# Read-outs that look alike come from different tables or passages of the source.
# Experiments:
# Experiment in all cases: Susceptibility testing of VVC clinical isolates at pH 7 and 4 (CLSI M27-A3)
# [1] = tested on: C. parapsilosis vaginal isolates; assay type: cell-based, Candida parapsilosis; details: 14 isolates, read-out: MIC90
# [2] = tested on: C. glabrata vaginal isolates; assay type: cell-based, Candida glabrata; details: for Number of isolates at MIC 0.03 μg/mL / Number of isolates at MIC 0.06 μg/mL / Number of isolates at MIC 0.25 μg/mL / Number of isolates at MIC 0.5 μg/mL / Number of isolates at MIC 1 μg/mL / Number of isolates at MIC 2 μg/mL / Number of isolates at MIC 0.125 μg/mL / Number of isolates at MIC 4 μg/mL / Number of isolates at MIC ≥4 μg/mL: 21 VVC isolates; for MIC90: Nakaseomyces glabratus, 21 isolates, read-out: MIC90
# [3] = tested on: C. albicans vaginal isolates; assay type: cell-based, Candida albicans; details: for MIC / MIC90: Candida albicans; for MIC: read-out: MIC; for MIC90: 60 isolates, read-out: MIC90
# [4] = tested on: C. tropicalis vaginal isolates; assay type: cell-based; details: Candida tropicalis, 13 isolates, read-out: MIC90
structure (smiles),measurement,setting,value
"CCC(C)n1ncn(-c2ccc(N3CCN(c4ccc(OCC5COC(Cn6cncn6)(c6ccc(Cl)cc6Cl)O5)cc4)CC3)cc2)c1=O (centres unmarked) [ITR, itraconazole]",MIC90,"[1]; pH 4, 24 h",0.016 µg/mL
same,MIC90,"[1]; pH 4, 48 h",0.125 µg/mL
same,MIC90,"[1]; pH 7, 24 h",0.03 µg/mL
same,MIC90,"[1]; pH 7, 48 h",0.125 µg/mL
same,Number of isolates at MIC 0.03 μg/mL,"[2]; 24 h, pH 4",1
same,Number of isolates at MIC 0.06 μg/mL,"[2]; 24 h, pH 4",2
same,Number of isolates at MIC 0.25 μg/mL,"[2]; 24 h, pH 4",2
same,Number of isolates at MIC 0.5 μg/mL,"[2]; 24 h, pH 4",9
same,Number of isolates at MIC 1 μg/mL,"[2]; 24 h, pH 4",6
same,Number of isolates at MIC 2 μg/mL,"[2]; 24 h, pH 4",1
same,Number of isolates at MIC 0.03 μg/mL,"[2]; 24 h, pH 7",4
same,Number of isolates at MIC 0.06 μg/mL,"[2]; 24 h, pH 7",2
same,Number of isolates at MIC 0.125 μg/mL,"[2]; 24 h, pH 7",6
same,Number of isolates at MIC 0.25 μg/mL,"[2]; 24 h, pH 7",3
same,Number of isolates at MIC 0.5 μg/mL,"[2]; 24 h, pH 7",3
same,Number of isolates at MIC 1 μg/mL,"[2]; 24 h, pH 7",2
same,Number of isolates at MIC 4 μg/mL,"[2]; 24 h, pH 7",1
same,Number of isolates at MIC 0.03 μg/mL,"[2]; 48 h, pH 4",1
same,Number of isolates at MIC 0.06 μg/mL,"[2]; 48 h, pH 4",1
same,Number of isolates at MIC 0.125 μg/mL,"[2]; 48 h, pH 4",1
same,Number of isolates at MIC 0.5 μg/mL,"[2]; 48 h, pH 4",2
same,Number of isolates at MIC 1 μg/mL,"[2]; 48 h, pH 4",4
same,Number of isolates at MIC 2 μg/mL,"[2]; 48 h, pH 4",2
same,Number of isolates at MIC 4 μg/mL,"[2]; 48 h, pH 4",2
same,Number of isolates at MIC ≥4 μg/mL,"[2]; 48 h, pH 4",8
same,Number of isolates at MIC 0.03 μg/mL,"[2]; 48 h, pH 7",1
same,Number of isolates at MIC 0.06 μg/mL,"[2]; 48 h, pH 7",1
same,Number of isolates at MIC 0.125 μg/mL,"[2]; 48 h, pH 7",1
same,Number of isolates at MIC 0.25 μg/mL,"[2]; 48 h, pH 7",5
same,Number of isolates at MIC 0.5 μg/mL,"[2]; 48 h, pH 7",8
same,Number of isolates at MIC 2 μg/mL,"[2]; 48 h, pH 7",2
same,Number of isolates at MIC ≥4 μg/mL,"[2]; 48 h, pH 7",3
same,MIC90,"[2]; pH 4, 24 h",1 µg/mL
same,MIC90,"[2]; pH 4, 48 h",> 4 µg/mL
same,MIC90,"[2]; pH 7, 24 h",1 µg/mL
same,MIC90,"[2]; pH 7, 48 h",> 4 µg/mL
same,Number of isolates at MIC 0.008 μg/mL,"[3]; 60 VVC isolates, 24 h, pH 4",8
same,Number of isolates at MIC 0.03 μg/mL,"[3]; 60 VVC isolates, 24 h, pH 4",13
same,Number of isolates at MIC 0.06 μg/mL,"[3]; 60 VVC isolates, 24 h, pH 4",8
same,Number of isolates at MIC 0.125 μg/mL,"[3]; 60 VVC isolates, 24 h, pH 4",2
same,Number of isolates at MIC 0.25 μg/mL,"[3]; 60 VVC isolates, 24 h, pH 4",2
same,Number of isolates at MIC 0.5 μg/mL,"[3]; 60 VVC isolates, 24 h, pH 4",2
same,Number of isolates at MIC 2 μg/mL,"[3]; 60 VVC isolates, 24 h, pH 4",1
same,Number of isolates at MIC […],"[3]; 60 VVC isolates, 24 h, pH 4",24
same,Number of isolates at MIC 0.008 μg/mL,"[3]; 60 VVC isolates, 24 h, pH 7",21
same,Number of isolates at MIC 0.03 μg/mL,"[3]; 60 VVC isolates, 24 h, pH 7",9
same,Number of isolates at MIC 0.06 μg/mL,"[3]; 60 VVC isolates, 24 h, pH 7",3
same,Number of isolates at MIC 0.25 μg/mL,"[3]; 60 VVC isolates, 24 h, pH 7",2
same,Number of isolates at MIC 0.5 μg/mL,"[3]; 60 VVC isolates, 24 h, pH 7",2
same,Number of isolates at MIC 2 μg/mL,"[3]; 60 VVC isolates, 24 h, pH 7",1
same,Number of isolates at MIC […],"[3]; 60 VVC isolates, 24 h, pH 7",20
same,Number of isolates at MIC 0.03 μg/mL,"[3]; 60 VVC isolates, 48 h, pH 4",23
same,Number of isolates at MIC 0.06 μg/mL,"[3]; 60 VVC isolates, 48 h, pH 4",10
same,Number of isolates at MIC 0.125 μg/mL,"[3]; 60 VVC isolates, 48 h, pH 4",6
same,Number of isolates at MIC 0.25 μg/mL,"[3]; 60 VVC isolates, 48 h, pH 4",3
same,Number of isolates at MIC 0.5 μg/mL,"[3]; 60 VVC isolates, 48 h, pH 4",3
same,Number of isolates at MIC 1 μg/mL,"[3]; 60 VVC isolates, 48 h, pH 4",1
same,Number of isolates at MIC […],"[3]; 60 VVC isolates, 48 h, pH 4",10
same,Number of isolates at MIC ≥4 μg/mL,"[3]; 60 VVC isolates, 48 h, pH 4",4
same,Number of isolates at MIC 0.008 μg/mL,"[3]; 60 VVC isolates, 48 h, pH 7",6
same,Number of isolates at MIC 0.03 μg/mL,"[3]; 60 VVC isolates, 48 h, pH 7",8
same,Number of isolates at MIC 0.125 μg/mL,"[3]; 60 VVC isolates, 48 h, pH 7",6
same,Number of isolates at MIC 0.25 μg/mL,"[3]; 60 VVC isolates, 48 h, pH 7",2
same,Number of isolates at MIC 0.5 μg/mL,"[3]; 60 VVC isolates, 48 h, pH 7",2
same,Number of isolates at MIC 2 μg/mL,"[3]; 60 VVC isolates, 48 h, pH 7",1
same,Number of isolates at MIC […],"[3]; 60 VVC isolates, 48 h, pH 7",34
same,Number of isolates at MIC ≥4 μg/mL,"[3]; 60 VVC isolates, 48 h, pH 7",1
same,MIC,"[3]; 48 h, pH 4, fluconazole-resistant isolate 1, pH 4, 48 h",0.125 µg/mL
same,MIC,"[3]; 48 h, pH 4, fluconazole-resistant isolate 2, pH 4, 48 h",0.25 µg/mL
same,MIC,"[3]; 48 h, pH 4, fluconazole-resistant isolate 3, pH 4, 48 h",0.5 µg/mL
same,MIC,"[3]; 48 h, pH 4, fluconazole-resistant isolate 4, pH 4, 48 h",0.125 µg/mL
same,MIC,"[3]; 48 h, pH 4, fluconazole-resistant isolate 5, pH 4, 48 h",> 4 µg/mL
same,MIC,"[3]; 48 h, pH 4, fluconazole-resistant isolate 6, pH 4, 48 h",> 4 µg/mL
same,MIC,"[3]; 48 h, pH 4, fluconazole-resistant isolate 7, pH 4, 48 h",0.5 µg/mL
same,MIC,"[3]; 48 h, pH 4, fluconazole-resistant isolate 8, pH 4, 48 h",> 4 µg/mL
same,MIC,"[3]; 48 h, pH 4, fluconazole-resistant isolate 9, pH 4, 48 h",> 4 µg/mL
same,MIC,"[3]; 48 h, pH 4, fluconazole-resistant isolate 10, pH 4, 48 h",0.25 µg/mL
same,MIC,"[3]; 48 h, pH 7, fluconazole-resistant isolate 1, pH 7, 48 h",0.125 µg/mL
same,MIC,"[3]; 48 h, pH 7, fluconazole-resistant isolate 2, pH 7, 48 h",0.25 µg/mL
same,MIC,"[3]; 48 h, pH 7, fluconazole-resistant isolate 3, pH 7, 48 h",0.5 µg/mL
same,MIC,"[3]; 48 h, pH 7, fluconazole-resistant isolate 4, pH 7, 48 h",0.03 µg/mL
same,MIC,"[3]; 48 h, pH 7, fluconazole-resistant isolate 5, pH 7, 48 h",0.25 µg/mL
same,MIC,"[3]; 48 h, pH 7, fluconazole-resistant isolate 6, pH 7, 48 h",0.016 µg/mL
same,MIC,"[3]; 48 h, pH 7, fluconazole-resistant isolate 7, pH 7, 48 h",0.5 µg/mL
same,MIC,"[3]; 48 h, pH 7, fluconazole-resistant isolate 8, pH 7, 48 h",2 µg/mL
same,MIC,"[3]; 48 h, pH 7, fluconazole-resistant isolate 9, pH 7, 48 h",> 4 µg/mL
same,MIC,"[3]; 48 h, pH 7, fluconazole-resistant isolate 10, pH 7, 48 h",0.125 µg/mL
same,MIC90,"[3]; pH 4, 24 h",0.125 µg/mL
same,MIC90,"[3]; pH 4, 48 h",5 µg/mL
same,MIC90,"[3]; pH 7, 24 h",0.06 µg/mL
same,MIC90,"[3]; pH 7, 48 h",0.125 µg/mL
same,MIC90,"[4]; pH 4, 24 h",0.125 µg/mL
same,MIC90,"[4]; pH 4, 48 h",0.5 µg/mL
same,MIC90,"[4]; pH 7, 24 h",0.125 µg/mL
same,MIC90,"[4]; pH 7, 48 h",0.5 µg/mL
